Holding throughout (format): cell-based
In assay [1] the test system is human hepatoma cell line (HepG2). The assay is described as follows: MTT assay, tumor cell proliferation inhibition, HepG2. The following applies: 72 h, read-out: Tumor inhibition rate (IC50). The procedure:
(§1) Cell lines to be tested: human hepatoma cell line (HepG2), human lung cancer cell line (A549), human prostate cancer cell line (DU145), human breast cancer cell line (MCF-7), human neuroblastoma cell line (SH-SY5Y), human gastric mucosal cell line (Ges-1) and human embryonic lung fibroblast cell line (CCC-HPF-1) (the cells to be tested were purchased from the Cancer Hospital of Chinese Academy of Medical Sciences).
(§2) The cells in logarithmic growth phase were treated to prepare a single cell suspension, with the cell density adjusted, which was seeded in a 96-well cell culture plate. About 2×10^3 cells were contained in 100 μL per well, and cultured in a cell incubator at 37° C., 5% CO2, and saturated humidity for 24 h. The used medium was aspirated and abandoned, and then 100 μL of the target compound in different concentrations (0.1 μM-100 μM) were added for drug treatment. Five duplicate wells were prepared for each concentration. The background blank well, negative control well and positive control well were also prepared. All the wells were placed in a cell culture incubator at 37° C., 5% CO2, saturated humidity for another 72 h. Then, each well was added with 10 μL of MTT solution (5 mg/mL) and incubated for another 4 h. After that, each well was added with 100 μL of 10% SDS-0.1% NH4Cl (10% SDS purchased from Beijing Mengyimei Biotechnology Co., Ltd.) solution, and incubated at 37° C. for 10 h in the dark. Then, the absorbance OD was measured at 570 nm using a microplate reader at a reference wavelength of 650 nm. Cell proliferation inhibition was calculated according to the following formula: % inhibition=(ODcontrol−ODtreat)(ODcontrol−ODblank)×100. […] Each group was performed at least three times in parallel.
(In general: Formazan colour is commonly taken as a measure of viable cells.)

Assay [2] deals with human neuroblastoma cell line (SH-SY5Y). As to the kind of experiment: MTT assay, tumor cell proliferation inhibition, SH-SY5Y. Conditions: for pIC50: SH-SY5Y, 72 h, read-out: Tumor inhibition rate (IC50). The method, then:
as §1, §2

Assay [3] concerns human lung cancer cell line (A549). As to the kind of experiment: MTT assay, tumor cell proliferation inhibition, A549. The following applies: for pIC50: A549, MTT, 72 h, read-out: Tumor inhibition rate (IC50). The method, then:
as §1, §2

Assay [4] deals with human breast cancer cell line (MCF-7). The assay is described as follows: MTT assay, tumor cell proliferation inhibition, MCF-7. Conditions: MCF-7, MTT, 72 h; read-out: Tumor inhibition rate (IC50). The procedure:
as §1, §2

Assay [5] has as its system human prostate cancer cell line (DU145). As to the kind of experiment: MTT assay, tumor cell proliferation inhibition, DU145. The following applies: DU145, MTT, 72 h; read-out: Tumor inhibition rate (IC50). The method, then: as §1, §2

pIC50: −log10 of the molar value.

By pIC50 is commonly meant −log10 of the IC50, conventionally taken in molar units. As for `Fc1ccc(COc2cccc(Nc3ncnc4cc5c(cc34)OCCOCCO5)c2)cc1Cl` [Compound 14, N-(3-((3-chloro,4-fluorophenyl)methoxy)phenyl)-6,7-(benzo-9-crown-3)-4-quinazolinamine], the pIC50 in assay [1] is 4.36; in assay [2], 4.64; in assay [3], less than 4.00; in assay [4] it was less than 4.00; in assay [5], 4.05.
`O=[N+]([O-])c1ccc(COc2ccccc2Nc2ncnc3cc4c(cc23)OCCOCCOCCO4)cc1` [Compound 18, N-(2-((4-nitrophenyl)methoxy)phenyl)-6,7-(benzo-12-crown-4)-4-quinazolinamine]: the pIC50 in assay [1] was 4.22; in assay [2] it was 4.12; in assay [3] it was 4.52; in assay [4] it was less than 4.00; in assay [5], less than 4.00.
In the case of `N#Cc1ccc(COc2ccc(Nc3ncnc4cc5c(cc34)OCCOCCOCCO5)cc2)cc1` [Compound 11, N-(4-((4-cyanophenyl)methoxy)phenyl)-6,7-(benzo-12-crown-4)-4-quinazolinamine], the pIC50 in assay [1] was 4.17; in assay [2] it was 5.00; in assay [3] it was 4.09; in assay [4], less than 4.00; in assay [5], less than 4.00. The “inhibitory effect on SH-SY5Y (in words)” value in assay [2] (summary of Table 1) is recorded as “strong specific inhibitory effect”.
Consider `Fc1ccc(COc2ccccc2Nc2ncnc3cc4c(cc23)OCCOCCO4)cc1` [Compound 4, N-(2-((p-fluorophenyl)methoxy)phenyl)-6,7-(benzo-9-crown-3)-4-quinazolinamine], for which the pIC50 was less than 4.00 in assay [1]; 4.07 in assay [2]; 4.84 in assay [3]; less than 4.00 in assay [4]; less than 4.00 in assay [5].
As for `O=[N+]([O-])c1ccc(COc2ccc(Nc3ncnc4cc5c(cc34)OCCOCCOCCOCCO5)cc2)cc1` [Compound 32, N-(4-((4-nitrophenyl)methoxy)phenyl)-6,7-(benzo-15-crown-5)-4-quinazolinamine], the pIC50 in assay [1], in assay [2], in assay [3], in assay [4] and in assay [5] was less than 4.00 each time.
`O=[N+]([O-])c1ccc(COc2ccc(Nc3ncnc4cc5c(cc34)OCCOCCOCCO5)cc2)cc1` [Compound 20, N-(4-((4-nitrophenyl)methoxy)phenyl)-6,7-(benzo-12-crown-4)-4-quinazolinamine]: the pIC50 in assay [1] was 4.71; in assay [2], 4.23; in assay [3] it was less than 4.00; in assay [4], 4.18; in assay [5], less than 4.00.
`O=[N+]([O-])c1ccc(COc2ccccc2Nc2ncnc3cc4c(cc23)OCCOCCOCCOCCO4)cc1` [Compound 30, N-(2-((4-nitrophenyl)methoxy)phenyl)-6,7-(benzo-15-crown-5)-4-quinazolinamine]: the pIC50 in assay [1] is 4.32; in assay [2] it was less than 4.00; in assay [3] it was less than 4.00; in assay [4] it was less than 4.00; in assay [5] it was less than 4.00.
In the case of `c1ccc(COc2ccccc2Nc2ncnc3cc4c(cc23)OCCOCCOCCOCCO4)cc1` [Compound 27, N-(2-((phenyl)methoxy)phenyl)-6,7-(benzo-15-crown-5)-4-quinazolinamine], the pIC50 in assay [1] is 4.53; in assay [2], 4.62; in assay [3], 4.31; in assay [4] it was less than 4.00; in assay [5], less than 4.00.
In the case of `FC(F)(F)c1ccc(COc2ccccc2Nc2ncnc3cc4c(cc23)OCCOCCOCCO4)cc1` [Compound 22, N-(2-((4-trifluoromethylphenyl)methoxy)phenyl)-6,7-(benzo-12-crown-4)-4-quinazolinamine], the pIC50 in assay [1], in assay [2], in assay [3], in assay [4] and in assay [5] was less than 4.00 each time.
For `FC(F)(F)c1ccc(COc2cccc(Nc3ncnc4cc5c(cc34)OCCOCCO5)c2)cc1` [Compound 8, N-(3-((4-trifluoromethylphenyl)methoxy)phenyl)-6,7-(benzo-9-crown-3)-4-quinazolinamine], the negative logarithm of the IC50 (pIC50) in assay [1] is less than 4.00; in assay [2], 4.72; in assay [3], less than 4.00; in assay [4], less than 4.00; in assay [5], less than 4.00.
As for `FC(F)(F)c1ccc(COc2ccc(Nc3ncnc4cc5c(cc34)OCCOCCOCCO5)cc2)cc1` [Compound 24, N-(4-((4-trifluoromethylphenyl)methoxy)phenyl)-6,7-(benzo-12-crown-4)-4-quinazolinamine], the pIC50 in assay [1], in assay [2], in assay [3], in assay [4] and in assay [5] was less than 4.00 throughout.
With `O=[N+]([O-])c1ccc(COc2cccc(Nc3ncnc4cc5c(cc34)OCCOCCOCCO5)c2)cc1` [Compound 19, N-(3-((4-nitrophenyl)methoxy)phenyl)-6,7-(benzo-12-crown-4)-4-quinazolinamine], the pIC50 in assay [1], in assay [2], in assay [3], in assay [4] and in assay [5] was less than 4.00 in each case.
Turning to `Fc1ccc(COc2ccccc2Nc2ncnc3cc4c(cc23)OCCOCCO4)cc1Cl` [Compound 13, N-(2-((3-chloro,4-fluorophenyl)methoxy)phenyl)-6,7-(benzo-9-crown-3)-4-quinazolinamine], the negative-log IC50 (pIC50) in assay [1] was less than 4.00; in assay [2] it was less than 4.00; in assay [3] it was 5.03; in assay [4], less than 4.00; in assay [5], 4.05. The “inhibitory activity on A549 (in words)” value in assay [3] (MTT, summary of Table 1) was “strong specific inhibitory activity”.
Consider `c1ccc(OCc2ccncc2)c(Nc2ncnc3cc4c(cc23)OCCOCCO4)c1` [Compound 12, N-(2-((4-pyridyl)methoxy)phenyl)-6,7-(benzo-9-crown-3)-4-quinazolinamine], for which the pIC50 in assay [1] is 4.51; in assay [2] it was less than 4.00; in assay [3], less than 4.00; in assay [4], less than 4.00; in assay [5] it was less than 4.00.
As for `FC(F)(F)c1ccc(COc2ccccc2Nc2ncnc3cc4c(cc23)OCCOCCOCCOCCO4)cc1` [Compound 33, N-(2-((4-trifluoromethylphenyl)methoxy)phenyl)-6,7-(benzo-15-crown-5)-4-quinazolinamine], the pIC50 in assay [1] is less than 4.00; in assay [2], less than 4.00; in assay [3] it was 4.51; in assay [4], 4.55; in assay [5] it was less than 4.00.
Take `c1ccc(COc2cccc(Nc3ncnc4cc5c(cc34)OCCOCCOCCO5)c2)cc1` [Compound 21, N-(3-((phenyl)methoxy)phenyl)-6,7-(benzo-12-crown-4)-4-quinazolinamine]: the pIC50 in assay [1] was less than 4.00; in assay [2] it was 4.64; in assay [3], less than 4.00; in assay [4], less than 4.00; in assay [5], less than 4.00.
Consider `FC(F)(F)c1ccc(COc2ccc(Nc3ncnc4cc5c(cc34)OCCOCCO5)cc2)cc1` [Compound 9, N-(4-((4-trifluoromethylphenyl)methoxy)phenyl)-6,7-(benzo-9-crown-3)-4-quinazolinamine], for which the pIC50 in assay [1] was less than 4.00; in assay [2] it was 4.52; in assay [3], less than 4.00; in assay [4], less than 4.00; in assay [5], less than 4.00.

Source of the values: patent publication US11504371B2, “Quinazolines compound, preparation method therefor and application thereof” (Beijing Normal University, priority 2017, dated 2022).
